These results are taken from ChEMBL document CHEMBL1124435, “Evaluation of glycolamide esters and various other esters of aspirin as true aspirin prodrugs” (J Med Chem, 1989).

Structures are written as SMILES. ≈ marks a conversion by molar mass, not a printed value.

The nature of data set [1]: Observed pseudo-first order rate constant.
Data set [2] can be described thus: Observed second order rate constant.
The species entered for data set [3] is Homo sapiens. Description: Percentage of aspirin formed during hydrolysis in 10% human plasma at pH 7.4 at 37 degrees celsius.
Data set [4] in a line: in vitro. Particulars: human, 10% human plasma.
Data set [5] is described as follows: (§1) Observed first order rate constant.
For data set [6], the species on record is Homo sapiens. Nature of the data set: Percentage of aspirin formed during hydrolysis in undiluted human plasma at pH 7.4 at 37 degrees celsius.
A short description of data set [7]: Partition coefficient (logP). Particulars: octanol/water.
The nature of data set [8]: in vitro. Particulars: human, 10% human plasma, pH 7.4.
Description: Michaelis-Menten constant(Km) for hydrolysis in 10% human plasma(pH 7.4) at 37 degrees celsius
Data set [9] can be described thus: as §1. The class given is ADME.

`CCCC(=O)OCOC(=O)c1ccccc1OC(C)=O` registered a K obs in [1] of 0.723 min⁻¹. In addition, the K2 in data set [2] came out at 0.723 min⁻¹. The Aspirin formed in the data set listed under Homo sapiens [3] amounted to 0%. In the data set “physchem”, this compound displayed a solubility of 350 µg/mL (≈ 1.25 mM). In “in vitro [4]”, the half-life amounted to 1 min.

Regarding `CC(=O)Oc1ccccc1C(=O)OCC(=O)N(C(C)C)C(C)C`, the K1 in data set [5] stood at 0.0092 min⁻¹. The compound also showed a K obs in [1] of 0.0462 min⁻¹. In addition, the values for the Aspirin formed in the data set filed under Homo sapiens [6] and in the data set filed under Homo sapiens [3] were 21% and 20%, respectively. The K2 in data set [2] stood at 0.037 min⁻¹. Besides, the logP in data set [7] was 2.03. Also, the half-life in “in vitro [4]” is 15 min.

Turning to `CC(=O)Oc1ccccc1C(=O)OCC(=O)N(C1CCCCC1)C1CCCCC1`, the K obs in data set [1] turned out to be 0.0335 min⁻¹. This compound also registered a K2 in [2] of 0.0335 min⁻¹. Also, in the data set listed under Homo sapiens [3], the Aspirin formed was found to be 0%. In addition, the half-life in “in vitro [4]” amounted to 20.7 min.

Regarding `CC(=O)Oc1ccccc1C(=O)OCC(=O)NCC(N)=O`, in data set [1], the K obs stood at 0.136 min⁻¹. In [2], this compound yielded a K2 of 0.136 min⁻¹. In addition, the logP in [7] is -0.43. In the data set filed under Homo sapiens [3], the Aspirin formed is listed as 0%. Moreover, the half-life in the data set “in vitro [4]” came out at 5.1 min.

In [1], `CCOC(=O)CNC(=O)COC(=O)c1ccccc1OC(C)=O` gave a K obs of 0.212 min⁻¹. In data set [2], this compound displayed a K2 of 0.212 min⁻¹. Besides, the logP in data set [7] worked out at 0.99. In the data set filed under Homo sapiens [3], this compound showed an Aspirin formed of 0%. Further, the solubility in “physchem” is 4320 µg/mL (≈ 13.4 mM). In “in vitro [4]”, this compound returned a half-life of 3.3 min.

`COC(=O)c1ccccc1OC(C)=O` yielded a K obs in data set [1] of 0.214 min⁻¹. In addition, in [2], the K2 worked out at 0.214 min⁻¹. In [7], this compound displayed a logP of 1.46. In addition, the Aspirin formed in the data set filed under Homo sapiens [3] is 0%. The concentration in solution in the data set “physchem” (solubility) was 2810 µg/mL (≈ 14.5 mM). Besides, the half-life in “in vitro [4]” was determined as 3.2 min.

Take `CCOC(=O)CN(C)C(=O)COC(=O)c1ccccc1OC(C)=O`: the K obs in data set [1] was 0.34 min⁻¹. The K2 in [2] amounted to 0.34 min⁻¹. Further, the logP in data set [7] was 1.67. In the data set listed under Homo sapiens [3], the Aspirin formed amounted to 0%. For the same compound, the solubility in the data set “physchem” turned out to be 960 µg/mL (≈ 2.85 mM). Besides, in “in vitro [4]”, the half-life worked out at 2 min.

Regarding `CC(=O)Oc1ccccc1C(=O)Oc1ccccc1`, in data set [1], the K obs worked out at 0.53 min⁻¹. Also, the K2 in data set [2] was determined as 0.53 min⁻¹. The same compound had a log partition coefficient (logP) in data set [7] of 2.88. The Aspirin formed in the data set listed under Homo sapiens [3] came to 0%. The compound further returned a solubility in the data set “physchem” of 20 µg/mL (≈ 0.078 mM). The half-life in “in vitro [4]” worked out at 1.3 min.

`CC(=O)Oc1ccccc1C(=O)OCC(=O)N(C)C`: the K1 in data set [5] stood at 0.105 min⁻¹. Further, the K obs in [1] was determined as 0.209 min⁻¹. Besides, the Aspirin formed was determined as 49% in the data set listed under Homo sapiens [6] and 50% in the data set listed under Homo sapiens [3]. In addition, the K2 in [2] stood at 0.105 min⁻¹. In addition, the lipophilicity (logP) in data set [7] amounted to 0.38. Also, the Michaelis-Menten constant (Km) in the data set “in vitro [8]” amounted to 196 µM. In the data set “in vitro [4]”, this compound had a half-life of 3.3 min.

In data set [1], `CCOC(=O)COC(=O)c1ccccc1OC(C)=O` gave a K obs of 0.315 min⁻¹. In data set [2], this compound had a K2 of 0.315 min⁻¹. For the same compound, in data set [7], the logP is 1.67. In the data set listed under Homo sapiens [3], this compound showed an Aspirin formed of 0%. Moreover, in the data set “in vitro [4]”, the half-life is 2.2 min.

Compound `CC(=O)Oc1ccccc1C(=O)OCC(=O)N(C)CC(N)=O` displayed a K obs in data set [1] of 0.0924 min⁻¹. The 10E2 K1 in data set [9] came to 3.42 min⁻¹. The compound further yielded a K2 in data set [2] of 0.0582 min⁻¹. The compound also displayed a log partition coefficient (logP) in data set [7] of -0.46. This compound yielded an Aspirin formed in the data set listed under Homo sapiens [3] of 37%. Further, the Michaelis-Menten constant (Km) in the data set “in vitro [8]” was 380 µM. The same compound displayed a half-life in the data set “in vitro [4]” of 7.5 min.

For the compound `CCNC(=O)COC(=O)c1ccccc1OC(C)=O`, the K obs in data set [1] was determined as 0.26 min⁻¹. Besides, the K2 in data set [2] amounted to 0.26 min⁻¹. The same compound came in with a logP in data set [7] of 0.9. Further, in the data set listed under Homo sapiens [3], the Aspirin formed was found to be 0%. This compound also had a solubility in “physchem” of 5520 µg/mL (≈ 20.8 mM). In “in vitro [4]”, this compound gave a half-life of 2.7 min.

The compound `CC(=O)Oc1ccccc1C(=O)OCCN(C)C(C)=O` came in with a K obs in [1] of 0.205 min⁻¹. Besides, the K2 in data set [2] is 0.205 min⁻¹. Also, the Aspirin formed in the data set listed under Homo sapiens [3] worked out at 0%. The compound also had a half-life in “in vitro [4]” of 3.4 min.

In [5], `CC(=O)OCOC(=O)c1ccccc1OC(C)=O` showed a K1 of 0.115 min⁻¹. Also, in data set [1], the K obs is 0.395 min⁻¹. Further, the Aspirin formed in the data set listed under Homo sapiens [6] is 28%; in the data set listed under Homo sapiens [3], 29%. For the same compound, the K2 in data set [2] came to 0.28 min⁻¹. In data set [7], the logP was determined as 1.42. The compound further displayed a solubility in “physchem” of 2430 µg/mL (≈ 9.63 mM). The half-life in the data set “in vitro [4]” came to 1.8 min.

On to `CC(=O)Oc1ccccc1C(=O)OC[S+](C)[O-]` (configuration not stated), for which the K1 in data set [5] worked out at 0.0621 min⁻¹. The compound further came in with a K obs in data set [1] of 0.207 min⁻¹. Also, the values for the Aspirin formed in the data set filed under Homo sapiens [6] and in the data set filed under Homo sapiens [3] were 31% and 30%, respectively. The compound further had a K2 in [2] of 0.145 min⁻¹. In data set [7], this compound returned a logP of 0.11. In the data set “physchem”, this compound had a solubility of 4230 µg/mL (≈ 16.5 mM). The same compound registered a half-life in the data set “in vitro [4]” of 3.3 min.

Compound `CC(=O)Oc1ccccc1C(=O)OCC(=O)N(C)CCO` showed a K1 in data set [5] of 0.0699 min⁻¹. In data set [1], this compound had a K obs of 0.184 min⁻¹. In addition, the figures for the Aspirin formed in the data set listed under Homo sapiens [6] and in the data set listed under Homo sapiens [3] were 40% and 38%, respectively. The compound further yielded a K2 in [2] of 0.114 min⁻¹. For the same compound, the log partition coefficient (logP) in data set [7] worked out at 0.06. This compound returned a half-life in “in vitro [4]” of 3.8 min.

On to `CSCOC(=O)c1ccccc1OC(C)=O`, for which, in [1], the K obs was found to be 0.465 min⁻¹. Besides, the K2 in data set [2] came out at 0.465 min⁻¹. Also, the logP in data set [7] was 1.94. In the data set filed under Homo sapiens [3], this compound displayed an Aspirin formed of 0%. Besides, the solubility in the data set “physchem” came out at 550 µg/mL (≈ 2.29 mM). The compound further yielded a half-life in “in vitro [4]” of 1.5 min.

In [5], `CC(=O)Oc1ccccc1C(=O)OCCN(C)C.Cl` registered a K1 of 0.159 min⁻¹. Also, in data set [1], the K obs is 2.65 min⁻¹. Also, the Aspirin formed in the data set filed under Homo sapiens [6] was determined as 8%; in the data set filed under Homo sapiens [3], 6%. Besides, the K2 in data set [2] came to 2.49 min⁻¹. Besides, the solubility in the data set “physchem” was over 200000 µg/mL. The Km in the data set “in vitro [8]” was 49 µM. The half-life in “in vitro [4]” stood at 0.26 min.

For `CC(=O)Nc1ccc(OC(=O)c2ccccc2OC(C)=O)cc1` [BENORILATE], in data set [1], the K obs was 0.487 min⁻¹. In data set [2], this compound came in with a K2 of 0.487 min⁻¹. The compound further returned a logP in data set [7] of 2.15. In the data set listed under Homo sapiens [3], this compound yielded an Aspirin formed of 0%. Also, the solubility in “physchem” worked out at 20 µg/mL (≈ 0.0638 mM). In “in vitro [4]”, this compound registered a half-life of 1.4 min.

In data set [1], `CC(=O)Oc1ccccc1C(=O)Oc1ccccc1C(=O)O` [DIPLOSALSALATE] gave a K obs of 0.0094 min⁻¹. The compound further gave a K2 in data set [2] of 0.0094 min⁻¹. The compound further displayed an Aspirin formed in the data set listed under Homo sapiens [3] of 0%. In “in vitro [4]”, the half-life was 73.7 min.

One may read the solubility as how much of the substance goes into solution per volume. High values mean a readily soluble substance, low ones a poorly soluble substance. As a reminder, the half-life is how long it takes for the measured level to halve. Read a high half-life as slow loss. The term logP denotes the decadic logarithm of the partition coefficient of the neutral form, usually between octanol and water. A higher logP goes with higher lipophilicity. For orientation: Km means the concentration of substrate that gives half-maximal velocity.
